How the values were obtained:
[1] = test system: PC3 (prostate) cancer cells; assay: In vitro cytotoxic activity MTT assay, PC3; assay type: cell-based; details: Homo sapiens, Prostate cell, cells exposed for 96 hours, read-out: IC50, 50% inhibition of cell proliferation
Protocol: (§1) Compounds 1-12 were screened for their in vitro cytotoxic activity utilizing a 3-(4,5-dimethyl-thiazol-2-yl)-2,5-diphenyltetrazolium bromide (MTT) assay against selected cancer human cell lines consisting of PC3 (prostate), HCT116 (colon), A375 (melanoma), H1299 (lung), MIAPaCa-2 (pancreas), HL60 (leukemia), MCF7 (breast), MDA-MB-231 (breast) (T. Mosmann, J. Immmol. Meth., 1983, 65, 55-63). The cells were cultured at 37° C. in RMPI1640 medium supplemented with 10% fetal bovine serum, 50 IU/mL penicillin, and 50 μg/mL streptomycin in a 5% CO2 incubator. All cells were sub-cultured 3 times/week by trypsinisation. Viable cells were seeded and allowed to adhere for 12 h before a test drug was added in 96-well plates at an initial density of 1.0×10^5 cells/mL. Tumour cell lines were separately exposed to various concentrations of the tested compounds followed by incubation at a temperature of 37° C. during 96 h inside a medium of fresh RMPI 1640. Cells were subsequently incubated at 37° C. using MTT at 0.5 mg/mL during 4 h. After removal of supernatant, formazan crystals were dissolved in isopropanol and the optical density was measured at 570 nm. CX-4945 was used as a positive control.

[2] = test system: HCT116 (colon) cancer cells; assay: In vitro cytotoxic activity MTT assay, HCT116; assay type: cell-based; details: Homo sapiens, HCT-116, cells exposed for 96 hours, read-out: IC50, 50% inhibition of cell proliferation
Protocol: as §1

[3] = test system: A375 (melanoma) cancer cells; assay: In vitro cytotoxic activity MTT assay, A375; assay type: cell-based; details: Homo sapiens, A-375, cells exposed for 96 hours, read-out: IC50, 50% inhibition of cell proliferation
Protocol: as §1

[4] = test system: H1299 (lung) cancer cells; assay: In vitro cytotoxic activity MTT assay, H1299; assay type: cell-based; details: Homo sapiens, NCI-H1299, cells exposed for 96 hours, read-out: IC50, 50% inhibition of cell proliferation
Protocol: as §1

[5] = test system: MIAPaCa-2 (pancreas) cancer cells; assay: In vitro cytotoxic activity MTT assay, MIAPaCa-2; assay type: cell-based; details: Homo sapiens, MIA PaCa-2, cells exposed for 96 hours, read-out: IC50, 50% inhibition of cell proliferation
Protocol: as §1

[6] = test system: HL60 (leukemia) cancer cells; assay: In vitro cytotoxic activity MTT assay, HL60; assay type: cell-based; details: Homo sapiens, HL-60, cells exposed for 96 hours, read-out: IC50, 50% inhibition of cell proliferation
Protocol: as §1

[7] = test system: MCF7 (breast) cancer cells; assay: In vitro cytotoxic activity MTT assay, MCF7; assay type: cell-based; details: Homo sapiens, cells exposed for 96 hours, read-out: IC50, 50% inhibition of cell proliferation
Protocol: as §1

[8] = test system: MDA-MB-231 (breast) cancer cells; assay: In vitro cytotoxic activity MTT assay, MDA-MB-231; assay type: cell-based; details: Homo sapiens, cells exposed for 96 hours, read-out: IC50, 50% inhibition of cell proliferation
Protocol: as §1

[9] = target: T1, recombinant human CK2 (RRββ-holoenzyme) (Homo sapiens, UniProt P68400); assay: CK2 Kinase Assay (33P-ATP, substrate peptide RRRDDDSDDD); assay type: biochemical; details: final ATP concentration 15 μM, 10 min at 30° C.; read-out: protein kinase CK2 IC50
T1 construct: purchased Millipore
T1 sequence (P68400 whole entry): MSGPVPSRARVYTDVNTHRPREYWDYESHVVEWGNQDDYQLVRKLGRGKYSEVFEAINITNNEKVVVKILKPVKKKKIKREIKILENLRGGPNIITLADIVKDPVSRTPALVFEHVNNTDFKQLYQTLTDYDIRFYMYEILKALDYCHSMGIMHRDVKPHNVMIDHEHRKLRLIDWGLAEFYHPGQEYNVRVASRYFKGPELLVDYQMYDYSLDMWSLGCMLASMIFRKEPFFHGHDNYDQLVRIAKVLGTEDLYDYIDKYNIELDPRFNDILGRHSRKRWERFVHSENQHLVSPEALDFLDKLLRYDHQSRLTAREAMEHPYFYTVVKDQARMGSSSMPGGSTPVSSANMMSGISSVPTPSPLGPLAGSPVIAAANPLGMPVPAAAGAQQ
T1 sequence (P67870 whole entry partner): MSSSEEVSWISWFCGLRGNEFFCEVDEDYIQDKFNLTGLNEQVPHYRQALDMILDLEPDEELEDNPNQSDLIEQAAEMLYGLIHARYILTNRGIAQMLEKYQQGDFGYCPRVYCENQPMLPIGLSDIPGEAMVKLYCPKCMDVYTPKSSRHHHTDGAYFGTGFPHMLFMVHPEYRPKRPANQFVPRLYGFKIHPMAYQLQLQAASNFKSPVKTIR
Protocol: CK2 Kinase Assay was conducted using the protocol as described in Pierre F. et al; J. Med. Chem. 2011, 54, 635-654. The tested compounds in aqueous solution were added at a volume of 10 μL to a reaction mixture comprising 10 μL of assay dilution buffer (ADB; 20 mM MOPS, pH 7.2, 25 mM β-glycerol phosphate, 5 mM EGTA, 1 mM sodium orthovanadate, and 1 mM dithiothreitol), 10 μL of substrate peptide (RRRDDDSDDD, dissolved in ADB at a concentration of 1 mM), 10 μL of recombinant human CK2 (RRββ-holoenzyme, 25 ng dissolved in ADB; Millipore). Reactions were initiated by the addition of 10 μL of ATP solution (90% 75 mM MgCl2, 75 μM ATP (final ATP concentration:15 μM) dissolved in ADB; 10% [γ-33P] ATP (stock 1 mCi/100 μL; 3000 Ci/mmol (Perkin-Elmer) and maintained for 10 min at 30° C. The reactions were quenched with 100 μL of 0.75% phosphoric acid and then transferred to and filtered through a phosphor cellulose filter plate (Millipore). After washing each well five times with 0.75% phosphoric acid, the plate was dried under vacuum for 5 min and, following the addition of 15 μL of scintillation fluid to each well, the residual radioactivity was measured using a Wallac […]. The IC50 values were derived from eight concentrations of test inhibitors.

IC50 [9]: 12 nM
SMILES: Clc1cccc(Nc2nc3c(nc4ccncn43)c3cnccc23)c1 [Compound 1, N-(3-chlorophenyl)pyrimido[6′,1′:2,3]imidazo[4,5-c][2,6]naphthyridin-5-amine]
IC50 [1]: 1300 nM | IC50 [2]: 1200 nM | IC50 [3]: 2800 nM | IC50 [4]: 2100 nM | IC50 [5]: 900 nM | IC50 [6]: 3400 nM | IC50 [7]: 5100 nM | IC50 [8]: 3900 nM

Source: US12006317B1, “5-substituted aminopyrimido [6′,1′:2,3] imidazo [4,5-c] [2,6] naphthyridine compounds as CK2 inhibitors” (KING FAISAL UNIVERSITY, priority 2023, dated 2024)
